# Experimental data published in patent US12495798B2, “Nicotinamide compound and herbicidal composition comprising compound” (KOREA RESEARCH INSTITUTE OF CHEMICAL TECHNOLOGY, priority 2019, dated 2025).
# Key:
# Format in all cases: in vivo
# [1] = test system: sorghum; experiment: Herbicidal activity test against upland field weeds (soil treatment test); parameters: key to Soil treatment herbicidal activity, Sorghum: 0 (no control); 100 (complete control); conditions: 50 g ai/ha, scale 0 (no control) to 100 (complete control)
# Outline: (§1)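 Pre-emergence test: seeds or rootstocks were sown in fertilized sandy loam, and the next day the soil surface was sprayed with compound at 50 or 75 g a.i./ha in 50% acetone/0.1% Tween-20. Plants were grown in a greenhouse (30±5 °C, 14/10 h light/dark), then visually scored 0–100 against untreated at 14 d (21 d if needed).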
# [2] = test system: wheat; experiment: Phytotoxicity test for upland field crops (foliar treatment test); parameters: key: 0 (no harm); 9 (complete withered)
# Outline: (§2)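 Application rate ranged 19˜300 g a.i./ha, delivered as a foliar spray (100 ml/m^2) in 33% acetone with 0.1% Tween-20 to crops raised at 30±5 °C under 14/10 h light/dark. Symptoms were assessed 7 and 14 days post-treatment, extending to 21 days where necessary, using a 0–9 injury grade relative to untreated control.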
# [3] = test system: corn; experiment: as above; parameters: key: 0 (no harm); 9 (complete withered)
# Outline: as §2
# [4] = test system: fall panicum; experiment: Herbicidal activity test against upland field weeds (soil treatment test); parameters: key to Soil treatment herbicidal activity, Fall panicum: 0 (no control); 100 (complete control); conditions: 50 g ai/ha, scale 0 (no control) to 100 (complete control)
# Outline: as §1
# [5] = test system: black nightshade; experiment: Herbicidal activity test against upland field weeds (foliar treatment test); parameters: key to Foliar treatment herbicidal activity, black nightshade: 0 (no control); 100 (complete control); conditions: 50 g ai/ha, scale 0-100
# Outline: (§3)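 Weeds were raised from seed or rootstocks in horticultural soil in a greenhouse (30±5° C., 14/10 h light/dark), then foliage was hand-sprayed with compound at 50 or 75 g a.i./ha in 50% acetone with 0.1% Tween-20. Control was scored visually 0–100 against untreated plants after 14 days, or 21 if needed.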
# [6] = test system: quack grass; experiment: Herbicidal activity test against upland field weeds (soil treatment test); parameters: key to Soil treatment herbicidal activity, quack grass: 0 (no control); 100 (complete control); conditions: 50 g ai/ha, scale 0 (no control) to 100 (complete control)
# Outline: as §1
# [7] = test system: velvetleaf; experiment: Herbicidal activity test against upland field weeds (foliar treatment test); parameters: key to Foliar treatment herbicidal activity, velvet leaf: 0 (no control); 100 (complete control); conditions: 50 g ai/ha; for Foliar treatment herbicidal activity, velvet leaf: scale 0-100; for pest or weed control at 50 g/ha: Abutilon theophrasti, scale 0-100, read-out: Foliar treatment herbicidal activity, velvet leaf
# Outline: as §3
# [8] = test system: sorghum; experiment: as above; parameters: key to Foliar treatment herbicidal activity, Sorghum: 0 (no control); 100 (complete control); conditions: 50 g ai/ha, scale 0-100; for plant injury at 50 g/ha: Sorghum
# Outline: as §3
# [9] = test system: velvetleaf; experiment: Herbicidal activity test against upland field weeds (soil treatment test); parameters: key to Soil treatment herbicidal activity, velvet leaf: 0 (no control); 100 (complete control); conditions: 50 g ai/ha, scale 0 (no control) to 100 (complete control)
# Outline: as §1
# [10] = test system: crabgrass; experiment: Herbicidal activity test against upland field weeds (foliar treatment test); parameters: key to Foliar treatment herbicidal activity, Crabgrass: 0 (no control); 100 (complete control); conditions: 50 g ai/ha, scale 0-100; for pest or weed control at 50 g/ha: Digitaria sanguinalis
# Outline: as §3
# [11] = test system: soybean; experiment: Phytotoxicity test for upland field crops (foliar treatment test); parameters: key: 0 (no harm); 9 (complete withered)
# Outline: as §2
# [12] = test system: cotton; experiment: as above; parameters: key: 0 (no harm); 9 (complete withered)
# Outline: as §2
# [13] = test system: rice; experiment: as above; parameters: key: 0 (no harm); 9 (complete withered)
# Outline: as §2
# [14] = 50 g ai/ha, Wheat (7 days after treatment)
# [15] = 50 g ai/ha, Wheat (14 days after treatment)
# [16] = 100 g ai/ha, Wheat (7 days after treatment)
# [17] = 100 g ai/ha, Wheat (14 days after treatment)
# [18] = 50 g ai/ha, Corn (7 days after treatment)
# [19] = 50 g ai/ha, Corn (14 days after treatment)
# [20] = 100 g ai/ha, Corn (7 days after treatment)
# [21] = 100 g ai/ha, Corn (14 days after treatment)
smiles,measurement,setting,value
"CCOC(=O)OC(C)n1nnn(C)c1=NC(=O)c1ccc(C(F)(F)F)nc1CSCc1nnn(C)n1 (centres unmarked) [Compound No. 4-10, ethyl (1-(4-methyl-5-((2-((((2-methyl-2H-tetrazol-5-yl)methyl)thio)methyl)-6-(trifluoromethyl)nicotinoyl)imino)-4,5-dihydro-1H-tetrazol-1-yl)ethyl)carbonate]","Soil treatment herbicidal activity, Sorghum",[1],40
same,"Foliar treatment phytotoxicity, Wheat",[2]; [14],0
same,"Foliar treatment phytotoxicity, Wheat",[2]; [15],0
same,"Foliar treatment phytotoxicity, Wheat",[2]; [16],0
same,"Foliar treatment phytotoxicity, Wheat",[2]; [17],0
same,"Foliar treatment phytotoxicity, Corn",[3]; [18],2
same,"Foliar treatment phytotoxicity, Corn",[3]; [19],1
same,"Foliar treatment phytotoxicity, Corn",[3]; [20],3
same,"Foliar treatment phytotoxicity, Corn",[3]; [21],1
same,"Soil treatment herbicidal activity, Fall panicum",[4],40
same,"Foliar treatment herbicidal activity, black nightshade",[5],100
same,"Soil treatment herbicidal activity, quack grass",[6],0
same,"Foliar treatment herbicidal activity, velvet leaf",[7],100
same,"Foliar treatment herbicidal activity, Sorghum",[8],100
same,"Soil treatment herbicidal activity, velvet leaf",[9],100
same,"Foliar treatment herbicidal activity, Crabgrass",[10],100
Cn1cnc(COCc2nc(C(F)F)ccc2C(=O)Nc2nnnn2C)n1 [Compound No. 2-85],"Soil treatment herbicidal activity, Sorghum",[1],0
same,"Foliar treatment phytotoxicity, Wheat",[2]; [14],0
same,"Foliar treatment phytotoxicity, Wheat",[2]; [15],0
same,"Foliar treatment phytotoxicity, Wheat",[2]; [16],2
same,"Foliar treatment phytotoxicity, Wheat",[2]; [17],0
same,"Foliar treatment phytotoxicity, Corn",[3]; [18],0
same,"Foliar treatment phytotoxicity, Corn",[3]; [19],0
same,"Foliar treatment phytotoxicity, Corn",[3]; [20],0
same,"Foliar treatment phytotoxicity, Corn",[3]; [21],0
same,"Foliar treatment phytotoxicity, Soybean","[11]; 50 g ai/ha, Soybean (7 days after treatment)",4
same,"Foliar treatment phytotoxicity, Soybean","[11]; 50 g ai/ha, Soybean (14 days after treatment)",6
same,"Foliar treatment phytotoxicity, Soybean","[11]; 100 g ai/ha, Soybean (7 days after treatment)",6
same,"Foliar treatment phytotoxicity, Soybean","[11]; 100 g ai/ha, Soybean (14 days after treatment)",7
same,"Foliar treatment phytotoxicity, Cotton","[12]; 50 g ai/ha, Cotton (7 days after treatment)",7
same,"Foliar treatment phytotoxicity, Cotton","[12]; 50 g ai/ha, Cotton (14 days after treatment)",7
same,"Foliar treatment phytotoxicity, Cotton","[12]; 100 g ai/ha, Cotton (7 days after treatment)",8
same,"Foliar treatment phytotoxicity, Cotton","[12]; 100 g ai/ha, Cotton (14 days after treatment)",9
same,"Foliar treatment phytotoxicity, Rice","[13]; 50 g ai/ha, Rice (7 days after treatment)",7
same,"Foliar treatment phytotoxicity, Rice","[13]; 50 g ai/ha, Rice (14 days after treatment)",7
same,"Foliar treatment phytotoxicity, Rice","[13]; 100 g ai/ha, Rice (7 days after treatment)",8
same,"Foliar treatment phytotoxicity, Rice","[13]; 100 g ai/ha, Rice (14 days after treatment)",1
same,"Soil treatment herbicidal activity, Fall panicum",[4],20
same,"Foliar treatment herbicidal activity, black nightshade",[5],100
same,"Foliar treatment herbicidal activity, velvet leaf",[7],100
same,"Foliar treatment herbicidal activity, Sorghum",[8],5
same,"Soil treatment herbicidal activity, velvet leaf",[9],20
same,"Foliar treatment herbicidal activity, Crabgrass",[10],60
"Cn1nnc(CS(=O)(=O)Cc2nc(C(F)(F)F)ccc2C(=O)Nc2nnnn2C)n1 [Compound No. 2-105, N-(1-methyl-1H-tetrazol-5-yl)-2-((((2-methyl-2H-tetrazol-5-yl)methyl)sulfonyl)methyl)-6-(trifluoromethyl)nicotinamide]","Soil treatment herbicidal activity, Sorghum",[1],0
same,"Foliar treatment phytotoxicity, Wheat",[2]; [14],3
same,"Foliar treatment phytotoxicity, Wheat",[2]; [15],4
same,"Foliar treatment phytotoxicity, Wheat",[2]; [16],4
same,"Foliar treatment phytotoxicity, Wheat",[2]; [17],4
same,"Foliar treatment phytotoxicity, Corn",[3]; [18],0
same,"Foliar treatment phytotoxicity, Corn",[3]; [19],0
same,"Foliar treatment phytotoxicity, Corn",[3]; [20],0
same,"Foliar treatment phytotoxicity, Corn",[3]; [21],0
same,"Soil treatment herbicidal activity, Fall panicum",[4],0
same,"Foliar treatment herbicidal activity, black nightshade",[5],100
same,"Soil treatment herbicidal activity, quack grass",[6],0
same,pest or weed control at 50 g/ha,[7],90%
same,plant injury at 50 g/ha,[8],20%
same,"Soil treatment herbicidal activity, velvet leaf",[9],100
same,pest or weed control at 50 g/ha,[10],30%
"Cn1nnc(CSCc2nc(C(F)F)ccc2C(=O)Nc2nnnn2C)n1 [Compound No. 2-108, 6-(difluoromethyl)-N-(1-methyl-1H-tetrazol-5-yl)-2-((((2-methyl-2H-tetrazol-5-yl)methyl)thio)methyl)nicotinamide]","Soil treatment herbicidal activity, Sorghum",[1],0
same,"Foliar treatment phytotoxicity, Wheat",[2]; [14],3
same,"Foliar treatment phytotoxicity, Wheat",[2]; [15],3
same,"Foliar treatment phytotoxicity, Wheat",[2]; [16],4
same,"Foliar treatment phytotoxicity, Wheat",[2]; [17],4
same,"Foliar treatment phytotoxicity, Corn",[3]; [18],0
same,"Foliar treatment phytotoxicity, Corn",[3]; [19],0
same,"Foliar treatment phytotoxicity, Corn",[3]; [20],0
same,"Foliar treatment phytotoxicity, Corn",[3]; [21],0
same,"Soil treatment herbicidal activity, Fall panicum",[4],0
same,"Foliar treatment herbicidal activity, black nightshade",[5],100
same,"Soil treatment herbicidal activity, quack grass",[6],0
same,pest or weed control at 50 g/ha,[7],30%
same,plant injury at 50 g/ha,[8],70%
same,"Soil treatment herbicidal activity, velvet leaf",[9],0
same,pest or weed control at 50 g/ha,[10],60%
"COc1nc(COCc2nc(C(F)(F)F)ccc2C(=O)Nc2nnnn2C)nn1C [Compound No. 2-129, 2-(((5-methoxy-1-methyl-1H-1,2,4-triazol-3-yl)methoxy)methyl)-N-(1-methyl-1H-tetrazol-5-yl)-6-(trifluoromethyl)nicotinamide]","Soil treatment herbicidal activity, Sorghum",[1],0
same,"Foliar treatment phytotoxicity, Wheat",[2]; [14],1
same,"Foliar treatment phytotoxicity, Wheat",[2]; [15],1
same,"Foliar treatment phytotoxicity, Wheat",[2]; [16],2
same,"Foliar treatment phytotoxicity, Wheat",[2]; [17],2
same,"Foliar treatment phytotoxicity, Corn",[3]; [18],0
same,"Foliar treatment phytotoxicity, Corn",[3]; [19],0
same,"Foliar treatment phytotoxicity, Corn",[3]; [20],0
same,"Foliar treatment phytotoxicity, Corn",[3]; [21],0
same,"Soil treatment herbicidal activity, Fall panicum",[4],0
same,"Foliar treatment herbicidal activity, black nightshade",[5],100
same,"Soil treatment herbicidal activity, quack grass",[6],0
same,pest or weed control at 50 g/ha,[7],70%
same,plant injury at 50 g/ha,[8],40%
same,pest or weed control at 50 g/ha,[10],70%
"Cn1nnnc1COc1nc(C(F)(F)F)ccc1C(=S)Nc1nnnn1C [Compound No. 1-43, N-(1-methyl-1H-tetrazol-5-yl)-2-((1-methyl-1H-tetrazol-5-yl)methoxy)-6-(trifluoromethyl)pyridin-3-carbothioamide]","Soil treatment herbicidal activity, Sorghum",[1],0
same,"Soil treatment herbicidal activity, Fall panicum",[4],0
same,"Foliar treatment herbicidal activity, black nightshade",[5],100
same,"Soil treatment herbicidal activity, quack grass",[6],0
same,pest or weed control at 50 g/ha,[7],90%
same,plant injury at 50 g/ha,[8],60%
same,pest or weed control at 50 g/ha,"[9]; Abutilon theophrasti, read-out: Soil treatment herbicidal activity, velvet leaf",90%
same,pest or weed control at 50 g/ha,[10],95%
